According to patent publication US9802941B2, “Compounds and methods for inhibiting histone demethylases” (Gilead Sciences, Inc., priority 2014, dated 2017):
pIC50: −log10 of the molar value. Like-named read-outs stand apart in the source and are kept apart here.

How the values were obtained:
Type in all cases: biochemical
KDM4C (JMJD2C) = target: T1, KDM4C (JMJD2C) (Homo sapiens, UniProt Q9H3R0); experiment: Histone lysine demethylase AlphaLISA assay, KDM4C
T1 construct: KDM4C; BRIC, Denmark; 1-349; E. coli; host or cells: E. coli
T1 sequence (Q9H3R0 1-349): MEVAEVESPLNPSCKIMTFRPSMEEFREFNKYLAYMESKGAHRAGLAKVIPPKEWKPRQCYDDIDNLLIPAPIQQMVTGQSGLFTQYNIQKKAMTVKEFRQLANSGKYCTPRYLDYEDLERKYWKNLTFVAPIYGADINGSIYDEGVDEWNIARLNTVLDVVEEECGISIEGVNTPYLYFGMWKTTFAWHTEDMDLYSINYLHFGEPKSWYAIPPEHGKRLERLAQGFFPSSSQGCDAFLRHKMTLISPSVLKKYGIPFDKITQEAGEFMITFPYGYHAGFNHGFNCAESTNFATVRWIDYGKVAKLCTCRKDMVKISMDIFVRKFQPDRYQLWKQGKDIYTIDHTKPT
Summary of the method: (§1)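 AlphaLISA readout after sequential addition of acceptor beads and streptavidin donor beads, incubated at room temperature in the dark. Demethylase reaction ran at room temperature following a 10-minute enzyme–compound preincubation in 50 mM Hepes (pH 7.4-8.0), 0.1% BSA, Tween-20, 5 μM (NH4)2Fe(SO4)2.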

KDM2B (FBXL10) = target: T2, KDM2B (FBXL10) (Homo sapiens, UniProt Q8NHM5); experiment: Histone lysine demethylase AlphaLISA assay, KDM2B
T2 construct: KDM2B; BPS,; 1-650; Bac; purchased BPS Bioscience, US; host or cells: baculovirus system
T2 sequence (Q8NHM5 1-650): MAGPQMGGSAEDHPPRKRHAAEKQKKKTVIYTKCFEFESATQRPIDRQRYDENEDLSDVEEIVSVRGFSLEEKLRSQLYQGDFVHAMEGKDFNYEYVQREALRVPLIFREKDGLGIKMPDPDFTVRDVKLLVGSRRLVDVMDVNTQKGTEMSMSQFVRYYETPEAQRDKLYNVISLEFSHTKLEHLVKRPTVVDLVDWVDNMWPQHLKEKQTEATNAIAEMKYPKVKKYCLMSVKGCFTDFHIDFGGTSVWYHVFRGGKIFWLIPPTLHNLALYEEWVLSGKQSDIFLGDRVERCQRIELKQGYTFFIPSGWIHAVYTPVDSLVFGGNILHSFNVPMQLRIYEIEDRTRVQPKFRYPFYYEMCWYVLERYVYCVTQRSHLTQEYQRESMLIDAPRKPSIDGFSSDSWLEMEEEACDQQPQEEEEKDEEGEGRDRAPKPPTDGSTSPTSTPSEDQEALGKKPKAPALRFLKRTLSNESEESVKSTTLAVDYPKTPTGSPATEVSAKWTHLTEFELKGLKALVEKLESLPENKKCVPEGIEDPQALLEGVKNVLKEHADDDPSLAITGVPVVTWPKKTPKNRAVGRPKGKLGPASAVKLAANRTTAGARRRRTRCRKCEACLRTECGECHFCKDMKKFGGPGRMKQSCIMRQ
Summary of the method: as §1

PHF8 (KDM7) = target: T3, PHF8 (KDM7) (Homo sapiens, UniProt Q9UPP1); experiment: Histone lysine demethylase AlphaLISA assay, PHF8
T3 construct: KDM7 (PHF8); BRIC; 1-1322; Bac
T3 sequence (Q9UPP1 37-440 limits assumed): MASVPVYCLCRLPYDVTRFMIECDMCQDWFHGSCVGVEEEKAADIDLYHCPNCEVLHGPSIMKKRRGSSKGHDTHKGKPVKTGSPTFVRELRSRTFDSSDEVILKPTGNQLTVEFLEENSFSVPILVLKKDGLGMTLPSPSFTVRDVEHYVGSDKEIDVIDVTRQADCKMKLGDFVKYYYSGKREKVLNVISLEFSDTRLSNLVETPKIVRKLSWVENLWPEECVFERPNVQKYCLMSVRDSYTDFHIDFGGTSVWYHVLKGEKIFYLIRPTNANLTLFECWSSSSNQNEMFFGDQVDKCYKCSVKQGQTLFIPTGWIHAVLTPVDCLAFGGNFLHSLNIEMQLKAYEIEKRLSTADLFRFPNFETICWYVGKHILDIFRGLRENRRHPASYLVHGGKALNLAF
Summary of the method: as §1

KDM6A (UTX) = target: T4, KDM6A (UTX) (Homo sapiens, UniProt O15550); experiment: Histone lysine demethylase AlphaLISA assay, KDM6A
T4 construct: KDM6A (UTX); BRIC; 919-1401; E. coli; host or cells: E. coli
T4 sequence (O15550 919-1401): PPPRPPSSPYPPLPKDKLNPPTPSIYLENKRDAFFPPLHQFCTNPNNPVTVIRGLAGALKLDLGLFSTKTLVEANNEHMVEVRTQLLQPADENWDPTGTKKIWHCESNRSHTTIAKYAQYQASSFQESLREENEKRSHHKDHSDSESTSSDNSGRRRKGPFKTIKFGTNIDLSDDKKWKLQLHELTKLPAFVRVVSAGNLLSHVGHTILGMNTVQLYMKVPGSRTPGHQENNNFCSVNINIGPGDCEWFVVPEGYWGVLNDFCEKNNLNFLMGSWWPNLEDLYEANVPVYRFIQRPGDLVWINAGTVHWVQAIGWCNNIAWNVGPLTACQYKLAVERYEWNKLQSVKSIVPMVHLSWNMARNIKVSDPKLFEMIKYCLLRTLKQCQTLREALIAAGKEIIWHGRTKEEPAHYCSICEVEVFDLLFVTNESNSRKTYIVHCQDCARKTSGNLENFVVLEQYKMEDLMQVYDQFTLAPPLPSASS
Summary of the method: as §1

KDM5B (PLU-1) = target: T5, KDM5B (PLU-1) (Homo sapiens, UniProt Q9UGL1); experiment: Histone lysine demethylase AlphaLISA assay, KDM5B
T5 construct: BRIC; 1-809; E. coli; host or cells: E. coli
T5 sequence (Q9UGL1 1-809): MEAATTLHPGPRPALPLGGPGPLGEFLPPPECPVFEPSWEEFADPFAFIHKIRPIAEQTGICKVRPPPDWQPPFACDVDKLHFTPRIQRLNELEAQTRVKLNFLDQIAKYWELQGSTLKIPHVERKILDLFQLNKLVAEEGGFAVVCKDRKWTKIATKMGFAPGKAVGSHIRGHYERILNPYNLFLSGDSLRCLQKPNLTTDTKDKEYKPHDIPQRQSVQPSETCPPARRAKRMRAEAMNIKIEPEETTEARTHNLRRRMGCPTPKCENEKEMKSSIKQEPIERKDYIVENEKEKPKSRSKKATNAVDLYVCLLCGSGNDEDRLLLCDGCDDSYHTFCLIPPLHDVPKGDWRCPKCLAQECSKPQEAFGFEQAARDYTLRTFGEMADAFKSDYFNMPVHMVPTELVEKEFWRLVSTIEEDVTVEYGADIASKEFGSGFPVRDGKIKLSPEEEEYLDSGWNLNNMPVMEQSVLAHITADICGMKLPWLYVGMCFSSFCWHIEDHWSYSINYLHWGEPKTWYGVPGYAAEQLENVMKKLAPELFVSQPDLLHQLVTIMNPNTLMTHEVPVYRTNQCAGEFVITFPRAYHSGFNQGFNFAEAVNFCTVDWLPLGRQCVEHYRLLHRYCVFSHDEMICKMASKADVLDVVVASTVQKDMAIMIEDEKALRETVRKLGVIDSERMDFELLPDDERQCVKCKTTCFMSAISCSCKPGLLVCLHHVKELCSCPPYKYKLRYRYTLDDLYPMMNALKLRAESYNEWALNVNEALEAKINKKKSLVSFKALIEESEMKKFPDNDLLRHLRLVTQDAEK
Summary of the method: as §1

[1] = AlphaLISA assay, read-out: HDME Inhibition KDM4C (IC50)
[2] = AlphaLISA, in vitro, read-out: HDME Inhibition KDM4C
[3] = AlphaLISA, in vitro, read-out: HDME Inhibition KDM2B
[4] = AlphaLISA assay, read-out: HDME Inhibition PHF8 (IC50)
[5] = AlphaLISA, in vitro, read-out: HDME Inhibition PHF8
[6] = AlphaLISA assay, read-out: HDME Inhibition KDM6A (IC50)
[7] = AlphaLISA, in vitro, read-out: HDME Inhibition KDM6A
[8] = AlphaLISA assay, read-out: HDME Inhibition KDM5B (IC50)
[9] = AlphaLISA, in vitro, read-out: HDME Inhibition KDM5B
[10] = AlphaLISA assay, read-out: HDME Inhibition KDM2B (IC50)

| Structure (SMILES) | pIC50 (KDM4C (JMJD2C); [1]) | pIC50 (KDM4C (JMJD2C); [2]) | pIC50 (KDM2B (FBXL10); [3]) | pIC50 (PHF8 (KDM7); [4]) | pIC50 (PHF8 (KDM7); [5]) | pIC50 (KDM6A (UTX); [6]) | pIC50 (KDM6A (UTX); [7]) | pIC50 (KDM5B (PLU-1); [8]) | pIC50 (KDM5B (PLU-1); [9]) | pIC50 (KDM2B (FBXL10); [10]) | pIC50 (KDM5B (PLU-1)) |
| --- | --- | --- | --- | --- | --- | --- | --- | --- | --- | --- | --- |
| Cc1cc(C(=O)O)cc(CNCCc2ncccc2CCC(C)C)n1 [Compound 20, 2-methyl-6-[({2-[3-(3-methylbutyl)pyridin-2-yl]ethyl}amino)methyl]pyridine-4-carboxylic acid] | < 5.00 | < 5.00 | 5.27 | < 5.00 | < 5.00 | < 5.00 | < 5.00 | < 5.00 | < 5.00 | – | – |
| Cc1cc(C(=O)O)cc(CNCc2ncc(CCc3ccccc3)n2Cc2ccc(F)cc2)n1 [Compound 28, 2-{[({1-[(4-fluorophenyl)methyl]-5-(2-phenylethyl)-1H-imidazol-2-yl}methyl)amino]methyl}-6-methylpyridine-4-carboxylic acid] | < 5.00 | < 5.00 | 6.34 | – | 5.97 | < 5.00 | < 5.00 | < 5.00 | < 5.00 | – | – |
| CCc1cnc(CNCc2cc(C(=O)O)cc(C)n2)n1Cc1ccc(F)cc1 [Compound 4, 2-{[({5-ethyl-1-[(4-fluorophenyl)methyl]-1H-imidazol-2-yl}methyl)amino]methyl}-6-methylpyridine-4-carboxylic acid] | < 5.00 | < 5.00 | 7.52 | – | 6.63 | < 5.00 | < 5.00 | < 5.00 | < 5.00 | – | – |
| CCC(C)c1cnc(CNCc2cc(C(=O)O)cc(C)n2)n1Cc1ccc(F)cc1 (stereo not shown) [Compound 9, 2-[({[5-(butan-2-yl)-1-[(4-fluorophenyl)methyl]-1H-imidazole-2-yl]methyl}amino)methyl]-6-methyl-pyridine-4-carboxylic acid] | – | 6.52 | < 5.00 | < 5.00 | < 5.00 | < 5.00 | < 5.00 | – | – | < 5.00 | 6.15 |
| CCCCCc1cccnc1CCNCc1cc(C(=O)O)cc(C)n1 [Compound 16, 2-methyl-6-({[2-(3-pentylpyridin-2-yl)ethyl]amino}methyl)pyridine-4-carboxylic acid] | < 5.00 | < 5.00 | < 5.17 | – | 5.46 | < 5.05 | < 5.05 | < 5.00 | < 5.00 | < 5.17 | – |
| Cc1cc(C(=O)O)cc(CNCc2ncc(C3CCC3)n2Cc2ccc(F)cc2)n1 [Compound 39, 2-{[({5-cyclobutyl-1-[(4-fluorophenyl)methyl]-1H-imidazol-2-yl}methyl)amino]methyl}-6-methyl pyridine-4-carboxylic acid] | < 5.00 | < 5.00 | 6.81 | – | 6.33 | < 5.00 | < 5.00 | < 5.00 | < 5.00 | – | – |
| CSc1nnc(CNCc2cc(C(=O)O)cc(C)n2)n1Cc1ccc(F)cc1 [Compound 36, 2-{[({4-[(4-fluorophenyl)methyl]-5-(methylsulfanyl)-4H-1,2,4-triazol-3-yl}methyl)amino]methyl}-6-methylpyridine-4-carboxylic acid] | < 5.00 | < 5.00 | 6.61 | – | 6.04 | < 5.00 | < 5.00 | < 5.00 | < 5.00 | – | – |
| CCCCc1cccnc1CCNCc1cc(C(=O)O)cc(C)n1 [Compound 15, 2-({[2-(3-butylpyridin-2-yl)ethyl]amino}methyl)-6-methylpyridine-4-carboxylic acid] | < 5.00 | < 5.00 | 5.25 | < 5.22 | < 5.22 | < 5.00 | < 5.00 | < 5.00 | < 5.00 | – | – |
| Cc1cc(C(=O)O)cc(CN[C@H]2CCc3cccnc32)n1 [Compound 7, 2-({[(7S)-5H,6H,7H-cyclopenta[b]pyridin-7-yl]amino}methyl)-6-methylpyridine-4-carboxylic acid] | < 5.00 | < 5.00 | 5.15 | < 5.00 | < 5.00 | < 5.00 | < 5.00 | – | 5.91 | – | – |
| COc1ccc(CCn2ccnc2CNCc2cc(C(=O)O)cc(C)n2)cc1OC [Compound 22, 2-{[({1-[2-(3,4-dimethoxyphenyl)ethyl]-1H-imidazol-2-yl}methyl)amino]methyl}-6-methylpyridine-4-carboxylic acid] | < 5.00 | < 5.00 | < 5.00 | < 5.00 | < 5.00 | < 5.00 | < 5.00 | < 5.00 | < 5.00 | < 5.00 | – |
